Experimental findings from US9624214B2, “Amino-substituted imidazo[1,2-a]pyridinecarboxamides and their use” (BAYER PHARMA AKTIENGESELLSCHAFT, priority 2012, dated 2017) are described below.

Each structure is given as a SMILES string. Where a name gives a salt, the structure may show the parent alone.

The target in the test is T1, recombinant guanylate cyclase reporter cell line (Rattus norvegicus, UniProt P19686+P20595).
T1 construct: expressed in transfected cells
T1 sequence (P20595 1-619): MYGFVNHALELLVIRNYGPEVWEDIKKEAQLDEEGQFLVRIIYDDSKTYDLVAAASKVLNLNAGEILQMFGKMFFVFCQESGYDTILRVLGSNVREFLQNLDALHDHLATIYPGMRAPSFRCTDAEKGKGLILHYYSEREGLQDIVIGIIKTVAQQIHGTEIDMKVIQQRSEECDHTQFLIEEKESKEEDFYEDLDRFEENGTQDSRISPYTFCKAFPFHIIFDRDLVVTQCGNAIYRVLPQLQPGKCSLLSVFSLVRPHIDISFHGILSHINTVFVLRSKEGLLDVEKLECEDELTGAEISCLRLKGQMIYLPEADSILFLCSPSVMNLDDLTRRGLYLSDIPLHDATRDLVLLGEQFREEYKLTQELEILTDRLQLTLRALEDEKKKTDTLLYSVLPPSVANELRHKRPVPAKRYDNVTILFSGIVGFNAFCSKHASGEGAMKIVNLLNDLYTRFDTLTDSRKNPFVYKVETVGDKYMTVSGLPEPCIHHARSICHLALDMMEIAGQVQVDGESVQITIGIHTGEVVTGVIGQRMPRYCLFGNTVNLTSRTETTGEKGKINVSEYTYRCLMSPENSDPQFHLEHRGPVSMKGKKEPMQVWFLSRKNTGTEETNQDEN
T1 sequence (P19686 1-690): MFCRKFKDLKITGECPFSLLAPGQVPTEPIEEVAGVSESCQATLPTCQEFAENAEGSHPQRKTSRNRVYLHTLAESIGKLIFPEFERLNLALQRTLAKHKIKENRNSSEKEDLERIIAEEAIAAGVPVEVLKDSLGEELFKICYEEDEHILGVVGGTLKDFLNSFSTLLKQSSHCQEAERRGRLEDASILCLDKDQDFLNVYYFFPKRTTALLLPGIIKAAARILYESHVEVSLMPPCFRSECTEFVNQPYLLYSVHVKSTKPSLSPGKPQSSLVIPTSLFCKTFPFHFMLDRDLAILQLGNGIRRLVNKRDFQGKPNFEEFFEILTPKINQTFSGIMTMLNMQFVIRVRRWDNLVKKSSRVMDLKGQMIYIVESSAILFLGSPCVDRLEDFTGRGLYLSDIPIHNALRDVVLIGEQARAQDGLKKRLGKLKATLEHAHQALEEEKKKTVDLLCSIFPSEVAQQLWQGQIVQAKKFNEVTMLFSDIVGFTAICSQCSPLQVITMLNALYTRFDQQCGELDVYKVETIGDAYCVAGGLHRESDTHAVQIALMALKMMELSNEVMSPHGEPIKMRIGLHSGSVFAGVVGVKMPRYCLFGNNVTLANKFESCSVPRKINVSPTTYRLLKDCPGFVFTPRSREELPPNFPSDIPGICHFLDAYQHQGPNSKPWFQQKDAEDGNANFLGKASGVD
Nature of the test: B-2. Action on recombinant guanylate cyclase reporter cell line. The test is classed as cell-based. The following applies: MEC = minimal effective concentration; in some cases mean values from individual determinations. The gist of the method: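 MEC values, meaning the lowest concentration producing a detectable response, were taken from a recombinant cyclase reporter cell assay. Where repeated, individual determinations were averaged.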
Consider `Cc1cc(OCc2c(F)cccc2F)c2nc(C)c(C(=O)NC(C#N)CN)n2c1` (racemic) [Example 416, rac-N-(2-amino-1-cyanoethyl)-8-[(2,6-difluorobenzyl)oxy]-2,6-dimethylimidazo[1,2-a]pyridine-3-carboxamide], for which the MEC worked out at 1.00 µM. In the case of `Cc1cc(OCc2c(F)cccc2F)c2nc(C)c(C(=O)NCC(N)CC(F)(F)F)n2c1` (single isomer, unassigned) [Example 128, ent-N-(2-Amino-4,4,4-trifluorobutyl)-8-[(2,6-difluorobenzyl)oxy]-2,6-dimethylimidazo[1,2-a]-pyridine-3-carboxamide], the MEC worked out at 0.10 µM. With `Cc1cc(OCc2c(F)cccc2F)c2nc(C)c(C(=O)NCC(C)(N)CCC(F)(F)F)n2c1` (single isomer, unassigned; enantiomer a) [Example 408, ent-N-(2-amino-5,5,5-trifluoro-2-methylpentyl)-8-[(2,6-difluorobenzyl)oxy]-2,6-dimethylimidazo[1,2-a]pyridine-3-carboxamide (Enantiomer A)] the figure was 0.10 µM.

Regarding `Cc1cc(OCc2c(F)cccc2F)c2nc(C)c(C(=O)NCC(N)CCS(C)(=O)=O)n2c1` (racemic) [Example 413, rac-N-[2-amino-4-(methylsulfonyl)butyl]-8-[(2,6-difluorobenzyl)oxy]-2,6-dimethylimidazo[1,2-a]pyridine-3-carboxamide], the MEC came to 5.5 µM. Consider `Cc1cc(OCc2c(F)cccc2F)c2nc(C)c(C(=O)NCCNC(C)(C)C)n2c1` [Example 255, N-[2-(tert-Butylamino)ethyl]-8-[(2,6-difluorobenzyl)oxy]-2,6-dimethylimidazo[1,2-a]pyridine-3-carboxamide], for which the MEC was found to be 0.30 µM.

As to `Cc1nc2c(OCc3c(F)cccc3F)cccn2c1C(=O)NC(CN1CCOCC1)c1ccccc1` (racemic) [Example 134, rac-8-[(2,6-difluorobenzyl)oxy]-2-methyl-N-[2-(morpholin-4-yl)-1-phenylethyl]imidazo[1,2-a] - pyridine-3-carboxamide], the MEC was 3.00 µM. As for `Cc1nc2c(OCc3c(F)cccc3F)cccn2c1C(=O)NCC(C)(N)CCOCc1ccccc1` (single isomer, unassigned; enantiomer a) [Example 266, ent-N-[2-Amino-4-(benzyloxy)-2-methylbutyl]-8-[(2,6-difluorobenzyl)oxy]-2-methylimidazo[1,2-a]pyridine-3-carboxamide (Enantiomer A)], the MEC turned out to be 0.03 µM. With `Cc1nc2c(OCc3c(F)cccc3F)cc(Cl)cn2c1C(=O)NC(C)(C)CN` [Example 24, N-(1-amino-2-methylpropan-2-yl)-6-chloro-8-[(2,6-difluorobenzyl)oxy]-2-methylimidazo[1,2-a]pyridine-3-carboxamide] the figure was 0.65 µM; with `Cc1nc2c(OCc3c(F)cccc3F)cc(Cl)cn2c1C(=O)NCCN1CCN(C(C)C)CC1` [Example 152, 6-chloro-8-[(2,6-difluorobenzyl)oxy]-N-[2-(4-isopropylpiperazin-1-yl)ethyl]-2-methyl-imidazo[1,2-a]pyridine-3-carboxamide], 1.00 µM. With `Cc1nc2c(OCc3c(F)cccc3F)cccn2c1C(=O)NC1CC(C)(C)N(C)C(C)(C)C1` [Example 83, 8-[(2,6-difluorobenzyl)oxy]-2-methyl-N-(1,2,2,6,6-pentamethylpiperidin-4-yl)imidazo[1,2-a]pyridine-3-carboxamide] the figure was 0.10 µM. Next, `Cc1cc(OCc2c(F)cccc2F)c2nc(C)c(C(=O)NCC(C)(N)COCc3ccccc3)n2c1` (racemic) [Example 265, rac-N-[2-amino-3-(benzyloxy)-2-methylpropyl]-8-[(2,6-difluorobenzyl)oxy]-2,6-dimethylimidazo[1,2-a]pyridine-3-carboxamide]: 0.30 µM; `Cc1cc(OCc2c(F)cccc2F)c2nc(C)c(C(=O)NCCN(CC(F)F)C3CC3)n2c1` [Example 164, N-{2-[cyclopropyl(2,2-difluoroethyl)amino]ethyl}-8-[(2,6-difluorobenzyl)oxy]-2,6-dimethylimidazo[1,2-a]-pyridine-3-carboxamide]: 0.10 µM.

For `Cc1nc2c(OCc3c(F)cccc3F)cc(Cl)cn2c1C(=O)NCC1CCCCN1` (single isomer, unassigned; ent-6) [Example 190, ent-6-Chloro-8-[(2,6-difluorobenzyl)oxy]-2-methyl-N-(piperidin-2-ylmethyl)imidazo[1,2-a]-pyridine-3-carboxamide], the MEC turned out to be 1.00 µM. Next, `CCC(C)(N)CNC(=O)c1c(C)nc2c(OCc3c(F)ccc(F)c3F)cc(C)cn12` (single isomer, unassigned; enantiomer b) [Example 275, ent-N-(2-Amino-2-methylbutyl)-2,6-dimethyl-8-[(2,3,6-trifluorobenzyl)oxy]imidazo[1,2-a]-pyridine-3-carboxamide (Enantiomer B)]: 0.10 µM; `Cc1nc2c(OCc3c(F)cccc3F)cccn2c1C(=O)NC(CN)c1ccc(Cl)cc1` (racemic) [Example 14, rac-N-[2-Amino-1-(4-chlorophenyl)ethyl]-8-[(2,6-difluorobenzyl)oxy]-2-methylimidazo[1,2-a]-pyridine-3-carboxamide Dihydrochloride]: 1.00 µM; `Cc1cc(OCc2c(F)cccc2F)c2nc(C)c(C(=O)NCC(C)(N)CC(C)C)n2c1` (racemic) [Example 218, rac-N-(2-Amino-2,4-dimethylpentyl)-8-[(2,6-difluorobenzyl)oxy]-2,6-dimethylimidazo[1,2-a]-pyridine-3-carboxamide]: 0.10 µM. Next, `COCC(N)CNC(=O)c1c(C)nc2c(OCc3c(F)cccc3F)cccn12` (single isomer, unassigned; enantiomer b) [Example 248, ent-N-(2-Amino-3-methoxypropyl)-8-[(2,6-difluorobenzyl)oxy]-2-methylimidazo[1,2-a]pyridine-3-carboxamide (Enantiomer B)]: 1.00 µM. Next, `COCC(C)(N)CNC(=O)c1c(C)nc2c(OCc3c(F)cccc3F)cccn12` (single isomer, unassigned) [Example 214, ent-N-(2-Amino-3-methoxy-2-methylpropyl)-8-[(2,6-difluorobenzyl)oxy]-2-methylimidazo[1,2-a]-pyridine-3-carboxamide]: 0.30 µM. In the case of `Cc1nc2c(OCc3c(F)cccc3F)cccn2c1C(=O)NCC(C)N1CCOCC1` (single isomer, unassigned; ent-8) [Example 180, ent-8-[(2,6-Difluorobenzyl)oxy]-2-methyl-N-[2-(morpholin-4-yl)propyl]imidazo[1,2-a]pyridine-3-carboxamide], the MEC amounted to 1.00 µM.

Turning to `Cc1cc(OCc2c(F)cccc2F)c2nc(C)c(C(=O)NC3C(N)C3(C)C)n2c1` (racemic) [Example 341, rac-N-(3-amino-2,2-dimethylcyclopropyl)-8-[(2,6-difluorobenzyl)oxy]-2,6-dimethylimidazo[1,2-a]pyridine-3-carboxamide (Racemate)], the MEC worked out at 0.30 µM. Next, `COC(=O)c1cccc(C(N)CNC(=O)c2c(C)nc3c(OCc4c(F)cccc4F)cc(C)cn23)c1` (racemic) [Example 399, rac-Methyl 3-{1-amino-2-[({8-[(2,6-difluorobenzyl)oxy]-2,6-dimethylimidazo[1,2-a]pyridin-3-yl}carbonyl)amino]ethyl}benzoate]: 1.00 µM. Next, `Cc1cc(OCc2c(F)cccc2F)c2nc(C)c(C(=O)NC3CC3N)n2c1` (racemic) [Example 330, rac-N-(2-aminocyclopropyl)-8-[(2,6-difluorobenzyl)oxy]-2,6-dimethylimidazo[1,2-a]pyridine-3-carboxamide]: 0.30 µM; `Cc1cc(OCc2c(F)cccc2F)c2nc(C)c(C(=O)NCC3CNCCO3)n2c1` (racemic) [Example 345, rac-8-[(2,6-Difluorobenzyl)oxy]-2,6-dimethyl-N-(morpholin-2-ylmethyl)imidazo[1,2-a]pyridine-3-carboxamide]: 1.00 µM.
